Source: patent publication US20130136803A1, “COMPOSITIONS FOR ALGAE TREATMENT IN RECIRCULATING AND STAGNANT WATER SYSTEMS” (ARCH CHEMICALS, INC., priority 2011, published 2013)

Tested on: wild mustard algae strain
Test: Efficacy of zinc and chelating agents against mustard algae (biomass over time by absorbance at 450 nm and visual assessment)
Assay type: cell-based
Settings: FIGS. 1-4
Protocol: A wild mustard algae strain isolated from a residential swimming pool was used in this study. This strain was re-suspended into sterile capped flasks of 250 ml capacity, containing 100 ml sterile Kratz/Meyers (KM) algae medium. Algae stock cultures were incubated at room temperature with a 16/8 hours on/off cycle white fluorescent lighting for approximately 2 weeks to obtain actively growing liquid cultures at the time of experiment.
Sterile KM medium was dispensed in 50 ml aliquots into sterile 125 ml capped Erlenmeyer flasks containing 40 glass beads of 6 mm diameter. Beads provided an increased surface area for algae to attach, since this alga develops as a loosely attached yellow growth on pool surfaces. Simultaneously, beads helped to homogenize samples by grinding at the time of sampling. An initial mustard algae culture of approximately 2×104 was set into each flask. […]
Algal cultures were challenged with 2 or 4 ppm zinc from zinc sulfate monohydrate combined with 2 or 10 ppm chelator. […] Biomass was measured over time by surrogate parameters: absorbance and visual assessment. Absorbance was measured at 450 nm using 1 inch cell in a spectrophotometer; visual assessment range was 0-3, where “0” equal to no growth and “3” equal to very heavy growth. The results of the optical readings were arithmetically averaged. […]

O=P1([O-])OP(=O)([O-])OP(=O)([O-])OP(=O)([O-])OP(=O)([O-])OP(=O)([O-])O1.[Na+].[Na+].[Na+].[Na+].[Na+].[Na+] [SHMP, sodium hexametaphosphate]
effect of chelating agent on the algaestatic activity of zinc ions (2 or 4 ppm zinc from zinc sulfate monohydrate combined with 2 or 10 ppm chelator, 3 weeks, compared with zinc alone): enhanced the performance of the algaestatic activity of zinc ions at all concentrations | dependence of the enhancing effect on the ratio of zinc to SHMP (zinc to SHMP ratios 2:1 to 1:5): effect became greater with increasing amount of SHMP to a ratio of 1:5
